25 compounds from US10689378B2, “Triazolopyridine compounds and uses thereof” (Novartis AG, priority 2016, dated 2020) can be followed below.

Like-named read-outs stand apart in the source and are kept apart here.

One may read the IC50 as the concentration that gives 50% inhibition.

Test [1] concerns H3K27 methylation in G401 cell. The test can be described thus: ELISA (H3K27 methylation) assay in G401 cells. In kind it is cell-based, human. The conditions noted are these: Homo sapiens. The method, boiled down: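 IC50 from dose-response fit of percent inhibition relative to DMSO, using H3K27me3/me2 ELISA signal (ECL) normalized to histone H3. Histones HCl-extracted after 48 h compound exposure of G401 cells at up to 20 μM, 8- or 12-point 3-fold series.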
For orientation: An ELISA detects its analyte on a solid surface through an enzyme-linked reagent.

The target of test [2] is wild type PRC2 (wtPRC2) complex (Homo sapiens, UniProt O75530). Put plainly: EED LC-MS assay (SAH production by PRC2). It counts as biochemical. The method, boiled down:
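LC-MS/MS readout of SAH (d4-SAH standard) after TFA quench gives PRC2 activity, normalized to controls and fitted to dose-response for IC50. Reaction: 12 nM EZH2/SUZ12/EED/Rbap48/AEBP complex, 1 μM SAM, 1.5 μM H3[21-44] peptide, 120 min rt, 20 min compound preincubation.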

The target of test [3] is T1, EED (1-441)-His protein (Homo sapiens, UniProt O75530).
T1 construct: 30 nM EED (1-441)-His protein
Put plainly: EED-H3K27Me3 peptide competition binding assay by AlphaScreen. An outline of the steps:
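Serially diluted compound (12 points, 3-fold) incubated 20 min with 30 nM EED(1-441)-His and 15 nM biotin-H3K27Me3(19-33) peptide in 25 mM HEPES pH 8, 0.02% Tween-20, 0.5% BSA. Ni-chelate acceptor/streptavidin donor beads (10 μg/mL each) added, 1 h rt dark; 615 nm emission normalized to controls, dose-response fit for IC50.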
In general terms: Alpha assays give light when donor and acceptor beads are brought close together.

[4] abbreviates: G-401, read-out: (c) IC50, ELISA Qualified.
The mark [5] stands for this setting: read-out: (b) IC50, EED LC-MS Qualified.
The mark [6] stands for this setting: read-out: (a) IC50, EED Alphascreen binding Qualified.
[7] abbreviates: G-401, H3K27 methylation ELISA, read-out: (c) IC50 ELISA Qualified.
The mark [8] stands for this setting: PRC2 LC-MS assay, read-out: (b) IC50 EED LC-MS Qualified.
Setting [9] is: EED-H3K27Me3 peptide competition, AlphaScreen, read-out: (a) IC50 EED Alphascreen binding Qualified.

Sequence of wild type PRC2 (wtPRC2) complex (O75530 whole entry): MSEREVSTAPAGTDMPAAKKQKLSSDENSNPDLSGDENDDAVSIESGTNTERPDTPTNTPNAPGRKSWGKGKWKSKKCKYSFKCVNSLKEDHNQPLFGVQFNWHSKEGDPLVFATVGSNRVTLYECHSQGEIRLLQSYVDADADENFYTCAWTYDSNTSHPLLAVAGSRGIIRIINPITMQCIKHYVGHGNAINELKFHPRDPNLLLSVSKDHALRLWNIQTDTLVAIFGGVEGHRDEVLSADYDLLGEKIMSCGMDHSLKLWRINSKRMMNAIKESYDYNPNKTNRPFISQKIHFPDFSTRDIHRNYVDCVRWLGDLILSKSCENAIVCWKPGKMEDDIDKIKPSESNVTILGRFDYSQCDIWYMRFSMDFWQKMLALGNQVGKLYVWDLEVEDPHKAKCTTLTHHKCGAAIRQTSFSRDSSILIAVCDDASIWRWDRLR
Sequence of wild type PRC2 (wtPRC2) complex (Q15910 whole entry partner): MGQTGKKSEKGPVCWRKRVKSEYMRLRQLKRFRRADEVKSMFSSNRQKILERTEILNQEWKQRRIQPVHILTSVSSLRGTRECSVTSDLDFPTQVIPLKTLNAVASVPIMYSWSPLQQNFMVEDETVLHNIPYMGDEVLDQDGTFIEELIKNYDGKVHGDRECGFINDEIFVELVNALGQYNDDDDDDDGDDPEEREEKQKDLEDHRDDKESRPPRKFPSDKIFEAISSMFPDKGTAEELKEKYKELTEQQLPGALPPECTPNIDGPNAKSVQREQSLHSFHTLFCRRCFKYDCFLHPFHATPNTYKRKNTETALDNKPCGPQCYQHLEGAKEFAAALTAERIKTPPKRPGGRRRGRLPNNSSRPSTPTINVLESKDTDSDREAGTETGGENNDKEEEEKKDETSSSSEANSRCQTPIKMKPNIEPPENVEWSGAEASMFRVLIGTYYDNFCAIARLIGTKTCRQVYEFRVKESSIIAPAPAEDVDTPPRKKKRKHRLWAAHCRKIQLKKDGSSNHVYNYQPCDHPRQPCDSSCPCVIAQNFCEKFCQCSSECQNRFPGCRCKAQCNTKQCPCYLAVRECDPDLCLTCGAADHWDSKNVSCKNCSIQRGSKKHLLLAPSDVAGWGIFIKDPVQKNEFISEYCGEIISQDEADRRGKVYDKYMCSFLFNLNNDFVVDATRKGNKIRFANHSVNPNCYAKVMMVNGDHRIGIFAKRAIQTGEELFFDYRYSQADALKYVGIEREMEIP
Sequence of wild type PRC2 (wtPRC2) complex (Q15022 whole entry partner): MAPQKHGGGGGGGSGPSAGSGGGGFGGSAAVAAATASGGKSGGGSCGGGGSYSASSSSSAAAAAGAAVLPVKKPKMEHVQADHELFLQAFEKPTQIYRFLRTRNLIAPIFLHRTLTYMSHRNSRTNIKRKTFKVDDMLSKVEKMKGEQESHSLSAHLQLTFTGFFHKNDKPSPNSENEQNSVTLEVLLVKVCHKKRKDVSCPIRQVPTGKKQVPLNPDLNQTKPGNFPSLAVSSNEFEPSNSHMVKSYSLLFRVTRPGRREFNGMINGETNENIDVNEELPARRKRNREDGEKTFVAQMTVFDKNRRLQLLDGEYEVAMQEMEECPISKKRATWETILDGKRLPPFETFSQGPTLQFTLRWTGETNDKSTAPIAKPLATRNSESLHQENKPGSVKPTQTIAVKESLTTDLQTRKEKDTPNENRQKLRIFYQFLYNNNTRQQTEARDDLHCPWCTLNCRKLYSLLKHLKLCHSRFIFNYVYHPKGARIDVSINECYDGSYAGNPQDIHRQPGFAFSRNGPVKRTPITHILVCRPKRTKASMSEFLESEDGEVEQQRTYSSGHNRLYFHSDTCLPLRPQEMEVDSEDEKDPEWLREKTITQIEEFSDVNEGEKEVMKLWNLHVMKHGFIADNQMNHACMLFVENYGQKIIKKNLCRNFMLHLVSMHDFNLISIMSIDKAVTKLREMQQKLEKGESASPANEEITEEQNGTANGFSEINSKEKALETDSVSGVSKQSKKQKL
Sequence of wild type PRC2 (wtPRC2) complex (Q09028 whole entry partner): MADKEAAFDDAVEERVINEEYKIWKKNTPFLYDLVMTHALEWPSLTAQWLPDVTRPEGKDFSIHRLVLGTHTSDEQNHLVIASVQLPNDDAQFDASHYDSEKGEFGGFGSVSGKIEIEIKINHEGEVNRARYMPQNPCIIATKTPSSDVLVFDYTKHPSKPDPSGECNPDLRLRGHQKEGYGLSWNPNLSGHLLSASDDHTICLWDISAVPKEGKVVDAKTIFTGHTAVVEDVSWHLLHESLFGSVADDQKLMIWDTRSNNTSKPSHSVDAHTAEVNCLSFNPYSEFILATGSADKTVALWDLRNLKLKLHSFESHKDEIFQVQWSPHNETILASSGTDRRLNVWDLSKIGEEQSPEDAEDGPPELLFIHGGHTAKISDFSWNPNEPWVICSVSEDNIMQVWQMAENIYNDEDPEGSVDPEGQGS
Sequence of wild type PRC2 (wtPRC2) complex (Q6ZN18 whole entry partner): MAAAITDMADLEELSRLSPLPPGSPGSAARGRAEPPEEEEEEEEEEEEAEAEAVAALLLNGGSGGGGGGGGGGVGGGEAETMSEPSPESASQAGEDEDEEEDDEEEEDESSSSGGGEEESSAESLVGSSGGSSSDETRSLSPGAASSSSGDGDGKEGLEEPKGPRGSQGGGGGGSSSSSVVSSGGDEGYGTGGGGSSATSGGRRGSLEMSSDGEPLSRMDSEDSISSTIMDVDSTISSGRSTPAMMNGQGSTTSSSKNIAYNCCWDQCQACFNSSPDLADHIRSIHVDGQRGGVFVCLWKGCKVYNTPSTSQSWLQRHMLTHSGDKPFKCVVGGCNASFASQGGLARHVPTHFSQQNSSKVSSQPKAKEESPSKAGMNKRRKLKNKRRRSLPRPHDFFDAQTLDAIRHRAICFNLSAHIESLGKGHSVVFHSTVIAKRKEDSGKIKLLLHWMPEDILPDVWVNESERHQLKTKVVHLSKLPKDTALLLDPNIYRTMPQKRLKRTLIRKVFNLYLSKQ
T1 sequence (O75530 whole entry): as the sequence (O75530 whole entry) above

For the compound `COc1cccc(F)c1CNc1ccc(-c2cccc(S(C)(=O)=O)c2)c2nncn12` [Example 142, N-(2-fluoro-6-methoxybenzyl)-8-(3-(methylsulfonyl)phenyl)-[1,2,4]triazolo[4,3-a]pyridin-5-amine], the IC50 in test [1] (setting [4]) was 34.8 nM; in test [2] (setting [5]) it was 106 nM; in test [3] (setting [6]) it was 13.6 nM.
As for `CCN1CCC(S(=O)(=O)c2ccc(-c3ccc(NCc4ccccc4OC)n4cnnc34)cn2)CC1` [Example 143, 8-(6-((1-ethylpiperidin-4-yl)sulfonyl)pyridin-3-yl)-N-(2-methoxybenzyl)-[1,2,4] triazolo[4,3-a]pyridin-5-amine], the IC50 was determined as 53.2 nM in test [1] (setting [4]), 323 nM in test [2] (setting [5]) and 31.1 nM in test [3] (setting [6]).
Take `COc1cccc(F)c1CNc1ccc(-c2cncnc2)c2nncn12` [Example 147, N-(2-fluoro-6-methoxybenzyl)-8-(pyrimidin-5-yl)-[1,2,4]triazolo[4,3-a]pyridin-5-amine]: the IC50 was 42.5 nM in test [1] (setting [4]), 60.8 nM in test [2] (setting [5]) and 77.4 nM in test [3] (setting [6]).
The matching figures for `COc1cncc(-c2ccc(NCc3c(F)cccc3OC)n3cnnc23)c1` [Example 148, N-(2-fluoro-6-methoxybenzyl)-8-(5-methoxypyridin-3-yl)-[1,2,4] triazolo[4,3-a]pyridin-5-amine]: 60.6 nM, 99.8 nM and 28.9 nM.
In the case of `CCN1CCC(S(=O)(=O)c2ccc(-c3ccc(NCc4c(F)cccc4OC)n4cnnc34)cn2)CC1` [Example 149, 8-(6-((1-ethylpiperidin-4-yl)sulfonyl)pyridin-3-yl)-N-(2-fluoro-6-methoxybenzyl)-[1,2,4]triazolo[4,3-a]pyridin-5-amine], the concentration for half-maximal inhibition (IC50) in test [1] (setting [4]) stood at 14.9 nM; in test [2] (setting [5]) it was 27.1 nM; in test [3] (setting [6]), 18.2 nM.
As to `COc1cccc(F)c1CNc1ccc(-c2cnccc2C)c2nncn12` [Example 150, N-(2-fluoro-6-methoxybenzyl)-8-(4-methylpyridin-3-yl)-[1,2,4]triazolo[4,3-a] pyridin-5-amine], the IC50 in test [1] (setting [4]) came to 14.2 nM; in test [2] (setting [5]), 94.8 nM; in test [3] (setting [6]) it was 35.6 nM.
On the same counts, the results for `COc1cccc(F)c1CNc1ccc(-c2ccc(O)nc2)c2nncn12` [Example 151, 5-(5-((2-fluoro-6-methoxybenzyl)amino)-[1,2,4]triazolo[4,3-a]pyridin-8-yl) pyridin-2-ol] are 80.3 nM, 676 nM and 66.4 nM.
`CCN1CCN(c2ccc(-c3ccc(NCc4ccccc4OC)n4cnnc34)cc2)CC1` [Example 152, 8-(4-(4-ethylpiperazin-1-yl)phenyl)-N-(2-methoxybenzyl)-[1,2,4]triazolo[4,3-a] pyridin-5-amine]: the IC50 in test [1] (setting [4]) amounted to 101 nM; in test [2] (setting [5]), 207 nM; in test [3] (setting [6]) it was 65.9 nM.
On the same counts, the results for `COc1cccc(F)c1CNc1ccc(-c2ccc(N(C)S(C)(=O)=O)cc2)c2nncn12` [Example 154, N-(4-(5-((2-fluoro-6-methoxybenzyl)amino)-[1,2,4]triazolo[4,3-a]pyridin-8-yl)phenyl)-N-methyl methanesulfonamide] are 4.9 nM, 83.4 nM and 4.5 nM.
As for `COc1cccc(F)c1CNc1ccc(-c2ccc(OCCO)cc2)c2nncn12` [Example 157, 2-(4-(5-((2-fluoro-6-methoxybenzyl)amino)-[1,2,4]triazolo[4,3-a]pyridin-8-yl)phenoxy)ethanol], the IC50 was 43.1 nM in test [1] (setting [4]), 152 nM in test [2] (setting [5]) and 40.4 nM in test [3] (setting [6]).
Turning to `COc1cccc(F)c1CNc1ccc(-c2cncc(F)c2)c2nncn12` [Example 158, N-(2-fluoro-6-methoxybenzyl)-8-(5-fluoropyridin-3-yl)-[1,2,4]triazolo[4,3-a] pyridin-5-amine], the IC50 in test [1] (setting [4]) turned out to be 19.6 nM; in test [2] (setting [5]), 38.9 nM; in test [3] (setting [6]), 13.8 nM.
For `COc1cccc(F)c1CNc1ccc(-c2ccc(F)nc2)c2nncn12` [Example 159, N-(2-fluoro-6-methoxybenzyl)-8-(6-fluoropyridin-3-yl)-[1,2,4]triazolo[4,3-a] pyridin-5-amine], the IC50 is 41 nM in test [1] (setting [4]), 102 nM in test [2] (setting [5]) and 49 nM in test [3] (setting [6]).
In the case of `COc1cccc(F)c1CNc1ccc(-c2cnc(S(C)(=O)=O)c(C)c2)c2nncn12` [Example 160, N-(2-fluoro-6-methoxybenzyl)-8-(5-methyl-6-(methylsulfonyl)pyridin-3-yl)-[1,2,4]triazolo[4,3-a] pyridin-5-amine], the 50% inhibitory concentration (IC50) in test [1] (setting [4]) came out at 14.8 nM; in test [2] (setting [5]), 351 nM; in test [3] (setting [6]), 15.7 nM.
On the same counts, the results for `COc1cccc(F)c1CNc1ccc(-c2cnc(C)nc2)c2nncn12` [Example 161, N-(2-fluoro-6-methoxybenzyl)-8-(2-methylpyrimidin-5-yl)-[1,2,4] triazolo[4,3-a]pyridin-5-amine] are 26.1 nM, 90.1 nM and 48.7 nM.
For the compound `COc1cc(F)cc(F)c1CNc1ccc(-c2ccc(CN(C)C)cc2)c2nncn12` [Example 162, N-(2,4-difluoro-6-methoxybenzyl)-8-(4-((dimethylamino)methyl)phenyl)-[1,2,4]triazolo[4,3-a]pyridin-5-amine], the IC50 in test [1] (setting [4]) is 14.3 nM; in test [2] (setting [5]), 77.5 nM; in test [3] (setting [6]), 16.6 nM.
The matching figures for `COc1cccc(F)c1CNc1ccc(-c2ccc(N(C)S(C)(=O)=O)nc2)c2nncn12` [Example 163, N-(5-(5-((2-fluoro-6-methoxybenzyl)amino)-[1,2,4]triazolo[4,3-a]pyridin-8-yl)pyridin-2-yl)-N-methylmethanesulfonamide]: 10.7 nM, 50.5 nM and 16.6 nM.
Turning to `COc1cccc(F)c1CNc1ccc(-c2ccc(C)nc2)c2nncn12` [Example 164, N-(2-fluoro-6-methoxybenzyl)-8-(6-methylpyridin-3-yl)-[1,2,4]triazolo[4,3-a]pyridin-5-amine], the IC50 is 36 nM in test [1] (setting [4]), 120 nM in test [2] (setting [5]) and 33.2 nM in test [3] (setting [6]).
Turning to `COc1cccc(F)c1CNc1ccc(-c2cncc(C)c2)c2nncn12` [Example 165, N-(2-fluoro-6-methoxybenzyl)-8-(5-methylpyridin-3-yl)-[1,2,4]triazolo[4,3-a]pyridin-5-amine], the IC50 in test [1] (setting [4]) was 14 nM; in test [2] (setting [5]), 38 nM; in test [3] (setting [6]) it was 15.9 nM.
The matching figures for `COc1cccc(F)c1CNc1ccc(-c2cccnc2F)c2nncn12` [Example 166, N-(2-fluoro-6-methoxybenzyl)-8-(2-fluoropyridin-3-yl)-[1,2,4]triazolo[4,3-a]pyridin-5-amine]: 33.3 nM, 20.4 nM and 25.2 nM.
Regarding `COc1cccc(F)c1CNc1ccc(-c2cncc(N3CCCC3=O)c2)c2nncn12` [Example 167, 1-(5-(5-((2-fluoro-6-methoxybenzyl)amino)-[1,2,4]triazolo[4,3-a]pyridin-8-yl)pyridin-3-yl)pyrrolidin-2-one], the IC50 was 10.3 nM in test [1] (setting [4]), 679 nM in test [2] (setting [5]) and 13.4 nM in test [3] (setting [6]).
The matching figures for `COc1ccccc1CNc1ccc(-c2ccc(N3CC(C)N(C)CC3C)nc2)c2nncn12` (stereo not drawn) [Example 168, N-(2-methoxybenzyl)-8-(6-(2,4,5-trimethylpiperazin-1-yl)pyridin-3-yl)-[1,2,4] triazolo[4,3-a]pyridin-5-amine]: 105 nM, 168 nM and 50.5 nM.
As for `COc1cccc(F)c1CNc1ccc(-c2ccc(OCCS(C)(=O)=O)cc2)c2nncn12` [Example 169, N-(2-fluoro-6-methoxybenzyl)-8-(4-(2-(methylsulfonyl)ethoxy)phenyl)-[1,2,4]triazolo[4,3-a] pyridin-5-amine], the IC50 in test [1] (setting [4]) worked out at 105 nM; in test [2] (setting [5]), 305 nM; in test [3] (setting [6]) it was 84.5 nM.
Regarding `COc1cccc(F)c1CNc1ccc(-c2c(C)nn(CCO)c2C)c2nncn12` [Example 170, 2-(4-(5-((2-fluoro-6-methoxybenzyl)amino)-[1,2,4]triazolo[4,3-a]pyridin-8-yl)-3,5-dimethyl-1H-pyrazol-1-yl)ethanol], the IC50 was 18.6 nM in test [1] (setting [4]), 67.2 nM in test [2] (setting [5]) and 25.8 nM in test [3] (setting [6]).
As to `COc1cccc(F)c1CNc1ccc(-c2ccc(N3CCOCC3)nc2)c2nncn12` [Example 172, N-(2-fluoro-6-methoxybenzyl)-8-(6-morpholinopyridin-3-yl)-[1,2,4]triazolo [4,3-a]pyridin-5-amine], the results for the IC50 in test [1] (setting [7]), in test [2] (setting [8]) and in test [3] (setting [9]) were 111 nM, 162 nM and 56.4 nM, respectively.
The matching figures for `COc1ccc(-c2ccc(NCc3c(F)cccc3OC)n3cnnc23)cn1` [Example 173, N-(2-fluoro-6-methoxybenzyl)-8-(6-methoxypyridin-3-yl)-[1,2,4]triazolo [4,3-a]pyridin-5-amine]: 40.3 nM, 123 nM and 36.3 nM.
